Entries after “also recorded” stand apart in the source; their conditions may differ.
Tests used:
[1] = tested on: N. gonorrhoeae adherence to CHO-CR3 cells; test: Fluorometric adherence assay, CHO-CR3 cells; format: cell-based, Chinese hamster; conditions: 1-h infection with GFP-expressing N. gonorrhoeae, competitor added simultaneously
Experimental: (§1) Fluorometric adherence assays were performed essentially as described previously ([36]). In brief, N. gonorrhoeae MS11 gfp was used to challenge (1 h) Pex or CHO cells simultaneously with peptide or drug competitor. Infected (devoid of peptide or drug) and uninfected (with peptide, drug, or dimethyl sulfoxide [DMSO] vehicle) control cell assays were treated in parallel with competitive peptide/drug inhibition assays. Fluorescence (485 nm excitation, 528 nm emission) intensity, corresponding to bacterial adherence, was recorded using a Synergy HT multimode microplate reader (BioTek Instruments, Winooski, VT, USA). Blank wells, devoid of Pex or CHO cells, were inoculated with bacteria and served as a control for nonspecific binding. Each assay was performed in triplicates on 3 separate occasions. Peptides used are described in Table S1. A nonparametric analysis of variance (ANOVA) was used to determine the statistical significance of the calculated mean of bacterial adherence.

[2] = tested on: N. gonorrhoeae infection of Pex cells
Experimental: Infection studies were performed as previously described with modification using a multiplicity of infection of 100 ([44]). To establish infection before treatment, Pex cells were challenged with N. gonorrhoeae for 90 min. The infection medium was then removed, the cells were rinsed thrice, and fresh medium containing 0.1% DMSO (vehicle control), carbamazepine (100 pM to 100 μM), methyldopa (100 pM to 100 μM), or ceftriaxone (0.1 μg/ml or 0.5 μg/ml, positive control) was added. Infections then proceeded for an additional 24 h or 48 h, after which, the infection medium was removed. Pex cell monolayers were subsequently lysed, serial dilutions of the Pex cell lysates were plated, and viable gonococci were enumerated by counting CFU after 48 h of incubation (37°C, 5% CO2). For sequential infection assays, viable bacterial colonies that survived a treatment assay were harvested from the enumeration (CFU) plates and used to inoculate new Pex cell monolayers. For these sequential assays, each infection (the original infection or the infection with bacteria that had survived the original infection) proceeded for 24 h. Pex cells were then processed, and bacteria were enumerated, as described above. For all assays, the percentage of N. gonorrhoeae that survived carbamazepine, methyldopa, or ceftriaxone treatment was determined as a function of bacteria that survived DMSO treatment (set to 100%). All assays were performed in triplicates on 3 separate occasions. A nonparametric ANOVA was used to determine the statistical significance of bacterial survival.

[3] = tested on: N. gonorrhoeae adherence to CHO-neo cells; test: Fluorometric adherence assay, CHO-neo cells; format: cell-based, Chinese hamster; conditions: 1-h infection; cells do not express CR3
Experimental: as §1

[4] = biological target: T1, human rI-domain (Homo sapiens, UniProt P11215); test: Direct competition SPR, drug versus N. gonorrhoeae MS11 pilin; format: binding; conditions: drug and pilin at 1 μM
T1 construct: Recombinant human and mouse I-domain proteins were made and purified as previously described; made in house
T1 sequence (P11215 150-328 limits assumed): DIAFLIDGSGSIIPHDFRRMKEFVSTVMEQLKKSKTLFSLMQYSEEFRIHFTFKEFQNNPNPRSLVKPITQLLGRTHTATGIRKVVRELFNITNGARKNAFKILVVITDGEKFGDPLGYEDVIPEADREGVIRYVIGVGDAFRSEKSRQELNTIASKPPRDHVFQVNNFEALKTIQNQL

[5] = orally administered, prescribed use; cited from earlier work
[6] = tested on: N. gonorrhoeae strains; test: Well diffusion assay; format: cell-based, Neisseria gonorrhoeae; conditions: 100 pM to 100 μM in wells, overnight
Experimental: Well diffusion assays were performed essentially as described previously ([56]). Briefly, N. gonorrhoeae strains were spread uniformly across the surfaces of GC agar plates at a culture density of 10^7 bacteria per ml. Wells were then punctured within the agar surface to which carbamazepine or methyldopa (100 pM to 100 μM), 0.2 μg/ml ceftriaxone, 10 μg/ml ciprofloxacin, or 1% DMSO (vehicle control) was added. Following an overnight incubation (37°C, 5% CO2), inhibition of N. gonorrhoeae growth was measured as the diameter (in millimeters) of the area of clearing surrounding (and inclusive of) each well on each agar plate, i.e., the zone of inhibition (ZOI). For agar plates in which a ZOI was not visible, data were recorded as the diameter of the well (6 mm). Assays were performed in triplicates on 3 separate occasions. Statistical significance of data obtained was determined using a Student's t test.

[7] = biological target: T1, human rI-domain; test: Repurposed drug SPR against human CR3 I-domain (single-cycle kinetics); conditions: 10 nM to 0.625 nM, read-out: KD, binding to human rI-domain
Experimental: Human rI-domain was immobilized onto a CM5 sensor chip with a blank control flow cell as described above. A combination of two FDA-approved drug libraries, Microsource-CPOZ (2,400 drugs) and ML Drug (741 drugs), was purchased from Compounds Australia. […] A single-concentration injection screen (yes/no) binding assay was performed. Binding was determined based on the response unit shift (equal to the molecular weight-corrected response units of the positive-control glycan) of the stability of the binding phase of the dissociation cycle. […] For carbamazepine and methyldopa, saturation occurred between 1.6 nM and 8 nM, and so a new concentration range (10 nM to 0.625 nM) was tested. […] All SPR sensorgrams and result plots described above were analyzed with Biacore S200 evaluation software (GE Healthcare Life Sciences). A literature review was used to evaluate the remaining drugs for known long-term safety in humans and known therapeutic concentrations.

[8] = tested on: N. gonorrhoeae adherence to Pex cells; test: Fluorometric adherence assay, Pex cells; format: cell-based, human; conditions: 1-h infection with GFP-expressing N. gonorrhoeae, competitor added simultaneously
Experimental: as §1

NC(=O)N1c2ccccc2C=Cc2ccccc21 [carbamazepine]
Gonococcal adherence to CHO-CR3 cells (fluorescence) [1]: dose-dependent decrease; also recorded: decreased in a dose-dependent manner
N. gonorrhoeae strain MS11 survival ([2]; 24 h posttreatment, 100 pM to 100 μM): dose-dependent reductions
Numbers of viable gonococci, low-passage-number gonococcal isolates ([2]; 24 h posttreatment, established Pex cell infections): significant reductions
Killing of survivor population in second sequential infection ([2]; bacteria harvested from a 24-h treated infection, re-used and treated again for 24 h): 100%
Efficacy in treating multidrug-resistant gonococci compared with ceftriaxone ([2]; panel of multidrug-resistant N. gonorrhoeae isolates): more effective than ceftriaxone
Gonococcal adherence to CHO-neo cells (fluorescence) [3]: no effect; also recorded: but not to CHO-neo cells
Blocking of the interaction of N. gonorrhoeae MS11 pilin with rCR3 or rI-domain [4]: completely blocked
Concentration in serum [5]: ~17 µM
Effect on gonococcal viability in the absence of Pex cells (zone of inhibition) [6]: neither carbamazepine nor methyldopa had an effect; also recorded: no effect
Kd [7]: 2.12 nM
Gonococcal adherence to Pex cells (fluorescence) [8]: dose-dependent decrease; also recorded: decreased in a dose-dependent manner

— publication PMC7064771, “Repurposed Drugs That Block the Gonococcus-Complement Receptor 3 Interaction Can Prevent and Cure Gonococcal Infection of Primary Human Cervical Epithelial Cells” (mBio, 2020)
